Measurements reported in paper PMC5028038, “Demethoxycurcumin Is A Potent Inhibitor of P-Type ATPases from Diverse Kingdoms of Life” (PLoS ONE, 2016).
Values after ≈ are worked out from the molar mass of the structure shown. Where two headings read alike, the source gives them in different places.

Tests used:
[1] = biological target: T1, A. thaliana PM H+-ATPase isoform AHA2 (Arabidopsis thaliana, UniProt P19456); experiment: ATP hydrolysis (Baginski) assay on AHA2 in yeast plasma membranes; type: biochemical; settings: for effect on AHA2 ATPase activity: 50 μM compound; for slope factor H of inhibition curve, AHA2: variable slope fit
T1 construct: made in house; host or cells: S. cerevisiae strain RS-72, plasma membranes isolated
T1 sequence (P19456 1-948): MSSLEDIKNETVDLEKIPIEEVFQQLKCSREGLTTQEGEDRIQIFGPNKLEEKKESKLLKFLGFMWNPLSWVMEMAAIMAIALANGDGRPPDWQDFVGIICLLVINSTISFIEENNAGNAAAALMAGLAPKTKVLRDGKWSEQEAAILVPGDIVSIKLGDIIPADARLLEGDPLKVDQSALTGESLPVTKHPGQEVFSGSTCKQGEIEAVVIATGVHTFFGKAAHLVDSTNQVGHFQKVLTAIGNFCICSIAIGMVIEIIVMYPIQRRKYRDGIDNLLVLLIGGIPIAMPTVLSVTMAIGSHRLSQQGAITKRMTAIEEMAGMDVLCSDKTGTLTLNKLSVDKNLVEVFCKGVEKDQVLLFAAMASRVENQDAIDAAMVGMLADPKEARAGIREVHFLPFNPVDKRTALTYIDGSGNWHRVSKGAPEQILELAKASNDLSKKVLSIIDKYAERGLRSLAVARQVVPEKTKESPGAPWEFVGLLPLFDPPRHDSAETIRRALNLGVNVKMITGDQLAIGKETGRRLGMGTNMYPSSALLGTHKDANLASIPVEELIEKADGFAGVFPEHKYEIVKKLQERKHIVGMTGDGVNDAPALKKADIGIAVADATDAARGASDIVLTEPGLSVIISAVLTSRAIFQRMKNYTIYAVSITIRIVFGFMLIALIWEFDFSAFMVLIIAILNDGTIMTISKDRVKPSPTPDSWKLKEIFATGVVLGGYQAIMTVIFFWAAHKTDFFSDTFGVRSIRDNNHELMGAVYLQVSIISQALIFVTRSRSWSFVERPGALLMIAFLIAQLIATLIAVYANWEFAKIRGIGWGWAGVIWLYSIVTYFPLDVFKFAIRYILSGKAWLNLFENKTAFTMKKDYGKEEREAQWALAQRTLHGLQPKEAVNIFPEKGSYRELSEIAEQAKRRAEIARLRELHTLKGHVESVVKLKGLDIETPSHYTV
Text: (§1) The S. cerevisiae strain RS-72 (MATa ade1-100 his4-519 leu2-3, 112) was transformed according to the lithium acetate/single-stranded carrier DNA/polyethylene glycol method, and cultured essentially as described previously. In RS-72, the promoter of the endogenous yeast PM H^+-ATPase PMA1 gene was replaced by the galactose-dependent GAL1 promoter. This strain grew in media containing galactose, whereas growth in glucose-based medium requires the complementation of the yeast PM H^+-ATPase with a functional PM H^+-ATPase expressed from a plasmid. A 2-micron yeast expression vector was used for expression of different versions of the Arabidopsis thaliana PM H^+-ATPase AHA2 (pMP 1625); a 92-amino acid C-terminal truncated mutation, aha2∆92 (pMP 132); or the wild-type S. cerevisiae PM H^+-ATPase PMA1 (pMP 400) placed under the control of the PMA1 promoter. The use of RS-72 allows for purification of microsomes with a very low endogenous ATPase activity compared to RS-72 transformed with an H^+-ATPase carrying plasmid.
(§2) Yeast expressing AHA2 and Pma1p PM H^+-ATPase, respectively, were grown and harvested essentially as described. The cells were grown with glucose as carbon source in order to ensure than no endogenous plasma membrane H^+-ATPase is expressed. Microsomes and plasma membranes were isolated with all manipulations performed at 4°C. The final pellets containing the isolated membranes were collected and homogenized in GTED20 buffer (20% [v/v] glycerol, 10 mM Tris-HCl pH 7.5, 1 mM EDTA pH 8.0, 1 mM DTT) and stored at—80°C.
(§3) ATPase activity was determined by the Baginski assay as described previously using 2–5 μg of PM protein. The assays were performed at 30°C in 300 μL volumes with 3 mM ATP, pH 6.5, for determination of AHA2 activity, or with 5 mM ATP, pH 5.9 for Pma1p activity. The assay medium 20 mM MOPS, 50 mM KNO3 (to inhibit vacuolar ATPase), 5 mM NaN3 (to inhibit mitochondrial ATPase), 3.5 mM Na2MoO4 (to inhibit acid phosphatase), 1 mM Mg^2+ free in solution, and the indicated concentrations of MgATP. IC50 values for compound inhibition were determined by pre incubating PM with different concentrations of compound for 30 min at room temperature. For kinetics studies, the concentration of ATP was varied between 0.125 and 8 mM using an ATP regenerating system (5 mM phosphoenolpyruvate and 50 μg/mL pyruvate kinase).
(§4) The kinetic of inhibition for DMCM was determined by monitoring the rate of ATP hydrolysis reaction in the presence of increasing ATP substrate concentration. All kinetic data were gathered from experiments performed in the cuvette-based assay, as described above. The data were used in Hanes-Woolf analysis followed by fitting to the appropriate Michaelis-Menten inhibition equation (competitive, noncompetitive, uncompetitive, or mix type inhibition). The kinetic parameters Vmax, Km, Ki were estimated by nonlinear regression using GraphPad Prism 5.0 (GraphPad Software Inc.). For evaluation of inhibitor potency, IC50 values were calculated by using the equation: A=100/1+10^(LogIC50−LogC)×H where A is the observed % ATPase activity in the presence of compound; C, the compound concentration; IC50, the concentration that caused 50% inhibition of the maximal compound effect; and H, the slope factor.

[2] = biological target: T2, yeast plasma membrane H+-ATPase Pma1p (Saccharomyces cerevisiae, UniProt P05030); experiment: ATP hydrolysis (Baginski) assay on Pma1p in yeast plasma membranes; type: biochemical, S. cerevisiae; settings: for effect on Pma1p ATPase activity: 50 μM compound; for slope factor H of inhibition curve, Pma1p: variable slope fit
T2 construct: made in house; host or cells: S. cerevisiae strain RS-72 (chromosomal PMA1 under GAL1 promoter, repressed on glucose), plasma membranes isolated
Text: as §1, §2, §3, §4

[3] = system: S. cerevisiae RS-72 expressing AHA2; experiment: Drop test, yeast RS-72 expressing AHA2; type: cell-based; settings: Saccharomyces cerevisiae, 72 h; no visible growth after 3 days at 30°C
Text: as §1
(§5) Transformed yeast cells, cultured on synthetic galactose (SG) agar medium supplemented with adenine 40 μg/mL and L-histidine 20 μg/mL (SGAH plates) for 3 days at 30°C, were suspended in H2O to 1x solution (OD660 = 1). Serial dilutions of 0.1, 0.01, 0.001 x of the cells were then prepared and spotted adjacently onto synthetic minimal media plates containing either 2% galactose or 2% glucose at pH 5.5 (SGAH or SDAH), incorporated with different concentrations of tested compound. Growth results were recorded after incubation for 3 days at 30°C. Minimum inhibitory concentrations (MIC values) were determined as the lowest concentrations of compounds where no visible growth of cells was observed.

[4] = system: S. cerevisiae RS-72 expressing Pma1p; experiment: Drop test, yeast RS-72 expressing Pma1p; type: cell-based; settings: Saccharomyces cerevisiae, 72 h; no visible growth after 3 days at 30°C
Text: as §1, §5

[5] = system: S. cerevisiae strain RS-72; experiment: Drop test, yeast growth, all tested RS-72 strains; type: cell-based; settings: Saccharomyces cerevisiae, RS72, 72 h, read-out: Minimum inhibitory concentration (MIC), yeast growth
Text: as §1, §5

SERCA1a (Ca2+-ATPase) = SERCA1a (Ca2+-ATPase) (Oryctolagus cuniculus, UniProt P04191); experiment: SERCA ATP hydrolysis, NADH-coupled spectrophotometric assay; type: biochemical, rabbit; settings: purified leaky SERCA preparation
Text: Sarcoplasmic reticulum vesicles, prepared from the leg and back muscles of rabbits, were used to obtain purified SERCA1a by extraction with a low concentration of deoxycholate according to established methods. The resulting membrane fragments were used for enzymatic assays to test the effect of the curcuminoid compounds on ATP hydrolysis spectrophotometrically by NADH oxidation with an ATP regenerating system.

[6] = set-up: method as in PMID 17999464; settings: due to fast metabolism; cited from earlier work
[7] = system: PM H+-ATPase in spinach plasma membrane vesicles; experiment: Proton pumping assay (ACMA fluorescence quenching) in spinach plasma membrane vesicles; type: biochemical, Spinacia oleracea; settings: 5–20 μM
Protocol: Baby spinach (Spinacia oleracea) leaves (50 g) were cut into small pieces and homogenized. Subsequently plasma membranes were isolated by two-phase partitioning according to [58]. Plasma membranes were collected and homogenized in the phase buffer containing 330 mM sucrose, 5 mM potassium phosphate pH 7.8, 2 mM KCl, 0.1 mM EDTA, and 1 mM DTT and stored at—80°C.
Inside-out vesicles were created from spinach plasma membranes by adding the detergent Brij-58 to the buffer. Proton transport into the vesicles was determined as described by monitoring fluorescence quenching (excitation at 412 nm, emission at 480 nm) of 9-amino-6-chloro-2-methoxyacridine (ACMA). The reaction medium contained 20 mM MOPS-KOH, pH 7.0, 40 mM K2SO4, 25 mM KNO3, 2 mM ATP, 1 μM ACMA, 60 nM valinomycin and 0.05% (w/v) Brij-58. Proton pumping reactions were started by the addition of MgSO4 to a final concentration of 2 mM, and the proton gradient was collapsed by the addition of 10 μM nigericin.

[8] = set-up: method as in doi:10.1016/S0260-8774(02)00264-9; settings: cited from earlier work
[9] = 3 mM ATP, pH 6.5, 30°C, 30 min preincubation, read-out: IC50, ATP hydrolysis, AHA2

T2 sequence (P05030 whole entry): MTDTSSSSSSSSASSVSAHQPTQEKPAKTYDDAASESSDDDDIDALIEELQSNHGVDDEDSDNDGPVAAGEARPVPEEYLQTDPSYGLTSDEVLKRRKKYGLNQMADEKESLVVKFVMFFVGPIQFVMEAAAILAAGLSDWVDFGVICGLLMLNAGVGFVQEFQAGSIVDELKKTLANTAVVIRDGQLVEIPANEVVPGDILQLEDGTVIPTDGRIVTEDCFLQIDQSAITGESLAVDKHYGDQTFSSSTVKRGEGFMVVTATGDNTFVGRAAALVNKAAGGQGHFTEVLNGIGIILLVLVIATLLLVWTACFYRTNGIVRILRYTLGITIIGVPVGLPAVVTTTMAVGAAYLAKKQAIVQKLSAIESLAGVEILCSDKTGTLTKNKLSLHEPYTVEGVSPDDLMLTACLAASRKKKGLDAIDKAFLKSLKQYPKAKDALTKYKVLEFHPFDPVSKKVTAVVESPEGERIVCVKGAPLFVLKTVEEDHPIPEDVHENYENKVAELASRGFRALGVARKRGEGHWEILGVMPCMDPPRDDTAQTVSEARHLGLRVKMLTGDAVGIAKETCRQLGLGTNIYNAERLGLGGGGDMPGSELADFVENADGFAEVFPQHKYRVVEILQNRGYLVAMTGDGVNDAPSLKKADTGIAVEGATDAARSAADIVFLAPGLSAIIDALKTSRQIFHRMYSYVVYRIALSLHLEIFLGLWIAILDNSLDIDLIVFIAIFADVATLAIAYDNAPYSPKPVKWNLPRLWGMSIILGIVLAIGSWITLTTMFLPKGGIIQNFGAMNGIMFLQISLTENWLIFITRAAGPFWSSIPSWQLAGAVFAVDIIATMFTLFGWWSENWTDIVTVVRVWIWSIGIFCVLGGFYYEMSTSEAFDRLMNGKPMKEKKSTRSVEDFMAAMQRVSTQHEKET
SERCA1a (Ca2+-ATPase), sequence (P04191 1-994 isoform P04191-2): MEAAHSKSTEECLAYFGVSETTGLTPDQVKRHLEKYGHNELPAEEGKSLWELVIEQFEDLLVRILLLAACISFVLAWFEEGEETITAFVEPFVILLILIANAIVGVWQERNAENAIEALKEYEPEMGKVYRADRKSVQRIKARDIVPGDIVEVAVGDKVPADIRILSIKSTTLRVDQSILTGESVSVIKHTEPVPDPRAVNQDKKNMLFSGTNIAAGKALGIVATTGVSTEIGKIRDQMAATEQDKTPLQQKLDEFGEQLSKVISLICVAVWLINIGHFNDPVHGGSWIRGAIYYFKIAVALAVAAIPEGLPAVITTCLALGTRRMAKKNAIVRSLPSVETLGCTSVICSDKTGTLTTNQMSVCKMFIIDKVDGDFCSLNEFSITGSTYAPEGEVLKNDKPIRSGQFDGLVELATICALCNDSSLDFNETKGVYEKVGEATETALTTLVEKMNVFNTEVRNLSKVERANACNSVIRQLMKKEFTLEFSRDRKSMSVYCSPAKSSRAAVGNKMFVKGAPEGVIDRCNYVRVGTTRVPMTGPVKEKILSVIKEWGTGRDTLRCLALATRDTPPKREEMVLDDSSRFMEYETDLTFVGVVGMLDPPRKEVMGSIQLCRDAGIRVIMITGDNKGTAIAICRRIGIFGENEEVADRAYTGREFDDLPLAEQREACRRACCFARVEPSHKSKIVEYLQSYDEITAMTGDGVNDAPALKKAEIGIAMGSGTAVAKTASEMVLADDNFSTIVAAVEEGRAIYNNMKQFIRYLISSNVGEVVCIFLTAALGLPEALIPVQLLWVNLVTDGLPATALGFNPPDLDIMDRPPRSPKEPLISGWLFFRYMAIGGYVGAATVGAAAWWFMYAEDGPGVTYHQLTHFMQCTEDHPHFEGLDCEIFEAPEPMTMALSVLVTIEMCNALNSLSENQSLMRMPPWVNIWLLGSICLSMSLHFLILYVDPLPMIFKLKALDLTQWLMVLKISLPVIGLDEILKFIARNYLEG

Row | Compound | effect on AHA2 ATPase activity [1] | slope factor H of inhibition curve, AHA2 [1] | effect on Pma1p ATPase activity [2] | slope factor H of inhibition curve, Pma1p [2] | MIC [3] [µM] | MIC [4] [µM] | IC50 [1, 9] [µM] | IC50 [2] [µM] | IC50 (SERCA1a (Ca2+-ATPase)) [µM] | MIC [5] [µM] | further results
1 | O=C(/C=C(O)/C=C/c1ccc(O)cc1)/C=C/c1ccc(O)cc1 [BDCM (3), bisdemethoxycurcumin] | significantly inhibited | ~1 | significantly inhibited | ~1 | 200 to 210 (≈ 61.7 to 64.7 µg/mL) | 210 to 220 (≈ 64.7 to 67.8 µg/mL) | – | – | – | – | IC50 [1]: 76.7 ± 1.1 µM; IC50 ([2]; 5 mM ATP, pH 5.9, 30°C, 30 min preincubation, read-out: IC50, ATP hydrolysis, Pma1p): 90.6 ± 1.1 µM; MIC ([5]; approximate values, 3 days at 30°C): ~200 µM (≈ 61.7 µg/mL)
2 | COc1cc(/C=C/C(=O)/C=C(O)/C=C/c2ccc(O)c(OC)c2)ccc1O [CM (1), Curcumin] | significantly inhibited | ~1 | significantly inhibited | ~1 | 40 to 50 (≈ 14.7 to 18.4 µg/mL) | 60 to 70 (≈ 22.1 to 25.8 µg/mL) | 60.4 ± 1.1 | 76.1 ± 1 | 3.9 ± 0.4 | ~50 (≈ 18.4 µg/mL) | bioavailability [6]: poor bioavailability
3 | COc1cc(/C=C/C(=O)/C=C(O)/C=C/c2ccc(O)cc2)ccc1O [DMCM (2), demethoxycurcumin] | significantly inhibited | 2.4 | significantly inhibited | 1.5 | 20 to 30 (≈ 6.77 to 10.2 µg/mL) | 40 to 50 (≈ 13.5 to 16.9 µg/mL) | 18.7 ± 1 | 28.9 ± 1 | 2.6 ± 0.9 | ~30 (≈ 10.2 µg/mL) | AHA2 Vmax ([1]; 10 μM demethoxycurcumin): 0.46 ± 0.02 µM/mg/min; AHA2 Vmax ([1]; 20 μM demethoxycurcumin): 0.35 ± 0.01 µM/mg/min; AHA2 Vmax ([1]; 30 μM demethoxycurcumin): 0.19 ± 0.01 µM/mg/min; AHA2 Vmax ([1]; 40 μM demethoxycurcumin): 0.11 ± 0.01 µM/mg/min; fold lower IC50 value in comparison to CM or BDCM ([1]; AHA2 and Pma1p ATP hydrolysis): 2- to 4 fold; mode of inhibition versus ATP, AHA2 ([1]; DMCM 0-40 μM, ATP 0.125–8 mM): noncompetitive inhibitor; Ki ([1]; in vitro, noncompetitive model, ATP 0.125-8 mM): 14.7 ± 0.7 µM; Ki [2]: 27.7 ± 1.2 µM; Pma1p Vmax ([2]; 10 μM demethoxycurcumin): 1.00 ± 0.13 µM/mg/min; Pma1p Vmax ([2]; 20 μM demethoxycurcumin): 0.63 ± 0.05 µM/mg/min; Pma1p Vmax ([2]; 30 μM demethoxycurcumin): 0.48 ± 0.04 µM/mg/min; Pma1p Vmax ([2]; 40 μM demethoxycurcumin): 0.39 ± 0.04 µM/mg/min; mode of inhibition versus ATP, Pma1p ([2]; DMCM 0-40 μM, ATP 0.125–8 mM): noncompetitive inhibitor; effect on H+ pumping activity [7]: dramatically reversed; chemical stability compared with CM [8]: more stable
